Results reported in patent US10385022B2, “3-amino-pyridines as GPBAR1 agonists” (HOFFMANN-LA ROCHE INC., priority 2011, dated 2019).
pEC50: −log10 of the molar value.

The compounds below were run against human GPBAR1 receptor (Homo sapiens (Human), UniProt Q8TDU6) (assay: functional cAMP assay in CHO-dhfr(minus) cells expressing human GPBAR1 receptors). Details: CHO-dhfr(minus) cells expressing human GPBAR1, 30 min at 30° C.
human GPBAR1 receptor, sequence (Q8TDU6 whole entry): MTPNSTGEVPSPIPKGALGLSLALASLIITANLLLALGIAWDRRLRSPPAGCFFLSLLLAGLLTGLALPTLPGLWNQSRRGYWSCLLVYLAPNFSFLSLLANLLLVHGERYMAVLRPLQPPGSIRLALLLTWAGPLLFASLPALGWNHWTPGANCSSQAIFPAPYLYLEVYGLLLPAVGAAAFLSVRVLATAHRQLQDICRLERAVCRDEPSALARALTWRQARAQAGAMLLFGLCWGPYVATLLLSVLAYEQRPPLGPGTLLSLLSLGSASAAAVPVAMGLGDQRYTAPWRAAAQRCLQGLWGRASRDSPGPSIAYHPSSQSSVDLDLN
Format: cell-based
In short: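 CHO-dhfr- cells were transfected with human GPBAR1, and a clone was chosen by cAMP response to lithocholic acid. EC50 values come from the cAMP read-out; specificity was checked in non-transfected CHO cells.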
`Cc1ccccc1-c1ccncc1N(C)C(=O)c1cc(N2CCOCC2)cc(C(F)(F)F)c1` [Example 152, N-Methyl-3-morpholin-4-yl-N-(4-o-tolyl-pyridin-3-yl)-5-trifluoromethyl-benzamide] showed a pEC50 of 6.25.
In the case of `COc1cc(F)ccc1-c1ccncc1N(C)C(=O)c1cc(Cl)cc(S(C)(=O)=O)c1` [Example 257, 3-Chloro-N-[4-(4-fluoro-2-methoxy-phenyl)-pyridin-3-yl]-5-methanesulfonyl-N-methyl-benzamide], the pEC50 was 7.10.
Work on `CN(C(=O)c1cc(C(F)(F)F)cc(S(C)(=O)=O)c1)c1cnccc1-c1ccccc1OC1CCC1` [Example 277, N-[4-(2-Cyclobutoxy-phenyl)-pyridin-3-yl]-3-methanesulfonyl-N-methyl-5-trifluoromethyl-benzamide] yielded a pEC50 of 8.10.
Work on `Cc1ccc(F)c(-c2ccncc2N(C)C(=O)c2cc(C(F)(F)F)cc(C(F)(F)F)c2)c1` [Example 42, N-[4-(2-Fluoro-5-methyl-phenyl)-pyridin-3-yl]-N-methyl-3,5-bis-trifluoromethyl-benzamide] yielded a pEC50 of 6.92.
`CN(C(=O)c1cc(C(F)(F)F)cc(S(C)(=O)=O)c1)c1cnccc1-c1cccnc1Cl` [Example 313, N-(2-Chloro-[3,4′]bipyridinyl-3′-yl)-3-methanesulfonyl-N-methyl-5-trifluoromethyl-benzamide] gave a pEC50 of 5.91.
`COc1cc(F)ccc1-c1ccncc1N(C)C(=O)c1cc(C(F)(F)F)cc(S(=O)(=O)N2CCS(=O)(=O)CC2)c1` [Example 304, 3-(1,1-Dioxo-thiomorpholine-4-sulfonyl)-N-[4-(4-fluoro-2-methoxy-phenyl)-pyridin-3-yl]-N-methyl-5-trifluoromethyl-benzamide] showed a pEC50 of 7.82.
With `CN(C(=O)c1cc(C(F)(F)F)cc(S(C)(=O)=O)c1)c1cnccc1-c1ccccc1OC1COC1` [Example 272, 3-Methanesulfonyl-N-methyl-N-{4-[2-(oxetan-3-yloxy)-phenyl]-pyridin-3-yl}-5-trifluoromethyl-benzamide] the pEC50 was 7.19.
Work on `COC(=O)CN(C(=O)c1cc(C(F)(F)F)nc(C(F)(F)F)c1)c1cnccc1-c1cc(F)c(F)cc1OC` [Example 173, {(2,6-Bis-trifluoromethyl-pyridine-4-carbonyl)-[4-(4,5-difluoro-2-methoxy-phenyl)-pyridin-3-yl]-amino}-acetic acid methyl ester] yielded a pEC50 of 7.28.
Compound `COc1cccc(F)c1-c1ccncc1N(CC(F)(F)F)C(=O)c1cc(C(F)(F)F)cc(S(C)(=O)=O)c1` [Example 223, N-[4-(2-Fluoro-6-methoxy-phenyl)-pyridin-3-yl]-3-methanesulfonyl-N-(2,2,2-trifluoro-ethyl)-5-trifluoromethyl-benzamide] has a pEC50 of 7.34.
Compound `COc1cc(F)ccc1-c1ccncc1N(C)C(=O)c1cc(C(F)(F)F)cc(S(=O)(=O)N2CCOCC2)c1` [Example 256, N-[4-(4-Fluoro-2-methoxy-phenyl)-pyridin-3-yl]-N-methyl-3-(morpholine-4-sulfonyl)-5-trifluoromethyl-benzamide] has a pEC50 of 7.70.
Work on `COc1ccc(F)c(-c2ccncc2N(C)C(=O)c2cc(C(F)(F)F)cc(S(C)(=O)=O)c2)c1F` [Example 285, N-[4-(2,6-Difluoro-3-methoxy-phenyl)-pyridin-3-yl]-3-methanesulfonyl-N-methyl-5-trifluoromethyl-benzamide] yielded a pEC50 of 5.54.
`COC(=O)CN(C(=O)c1cc(C(F)(F)F)nc(C(F)(F)F)c1)c1cnccc1-c1c(F)cccc1OC` [Example 195, Methyl 2-(N-(4-(2-fluoro-6-methoxyphenyl)pyridin-3-yl)-2,6-bis(trifluoromethyl)isonicotinamido)acetate] gave a pEC50 of 7.89.
`COc1ccc(C(=O)N(C)c2cnccc2-c2ccccc2C)cc1C(F)(F)F` [Example 92, 4-Methoxy-N-methyl-N-(4-o-tolyl-pyridin-3-yl)-3-trifluoromethyl-benzamide] was tested, and the pEC50 was 6.63.
`COc1cc(F)ccc1-c1ccncc1N(C)C(=O)c1cc(C(F)(F)F)cc(S(=O)(=O)CCCC(=O)O)c1` [Example 247, 4-(3-{[4-(4-Fluoro-2-methoxy-phenyl)-pyridin-3-yl]-methyl-carbamoyl}-5-trifluoromethyl-benzenesulfonyl)-butyric acid] was tested, and the pEC50 was 6.38.
Compound `CS(=O)(=O)c1cc(C(=O)N(Cc2ncco2)c2cnccc2-c2ccccc2Cl)cc(C(F)(F)F)c1` [Example 294, N-[4-(2-Chloro-phenyl)-pyridin-3-yl]-3-methanesulfonyl-N-oxazol-2-ylmethyl-5-trifluoromethyl-benzamide] has a pEC50 of 7.38.
`CS(=O)(=O)c1cc(C(=O)N(CC#N)c2cnccc2-c2ccccc2OC(F)(F)F)cc(C(F)(F)F)c1` [Example 311, N-Cyanomethyl-3-methanesulfonyl-N-[4-(2-trifluoromethoxy-phenyl)-pyridin-3-yl]-5-trifluoromethyl-benzamide] was tested, and the pEC50 was 7.09.
`Cc1ccccc1-c1ccncc1N(C)C(=O)c1cc(F)cc(Cl)c1` [Example 103, 3-Chloro-5-fluoro-N-methyl-N-(4-o-tolyl-pyridin-3-yl)-benzamide] showed a pEC50 of 6.48.
In the case of `CS(=O)(=O)CCN(C(=O)c1cc(C(F)(F)F)nc(C(F)(F)F)c1)c1cnccc1-c1ccccc1F` [Example 159, N-[4-(2-Fluoro-phenyl)-pyridin-3-yl]-N-(2-methanesulfonyl-ethyl)-2,6-bis-trifluoromethyl-isonicotinamide], the pEC50 was 6.49.
In the case of `Cc1cc(C)nc(C(=O)N(C)c2cnccc2-c2ccccc2C)c1` [Example 121, 4,6-Dimethyl-pyridine-2-carboxylic acid methyl-(4-o-tolyl-pyridin-3-yl)-amide], the pEC50 was 5.72.
With `COc1cc(F)c(F)cc1-c1ccncc1N(CC(F)(F)F)C(=O)c1cc(C(F)(F)F)cc(S(C)(=O)=O)c1` [Example 139, N-[4-(4,5-Difluoro-2-methoxy-phenyl)-pyridin-3-yl]-3-methanesulfonyl-N-(2,2,2-trifluoro-ethyl)-5-trifluoromethyl-benzamide] the pEC50 was 6.22.
Compound `CCOC(=O)CCc1cc(C(=O)N(C)c2cnccc2-c2ccc(F)cc2OC)cc(C(F)(F)F)c1` [Example 266, 3-(3-{[4-(4-Fluoro-2-methoxy-phenyl)-pyridin-3-yl]-methyl-carbamoyl}-5-trifluoromethyl-phenyl)-propionic acid ethyl ester] has a pEC50 of 6.75.
Compound `COCCN(C)c1cc(-c2ccccc2C)c(N(C)C(=O)c2cc(C(F)(F)F)cc(C(F)(F)F)c2)cn1` [Example 18, N-{6-[(2-Methoxy-ethyl)-methyl-amino]-4-o-tolyl-pyridin-3-yl}-N-methyl-3,5-bis-trifluoro methyl-benzamide] has a pEC50 of 6.07.
With `COc1cccc(F)c1-c1ccncc1N(C)C(=O)c1cc(C(F)(F)F)cc(C(F)(F)F)c1` [Example 66, N-[4-(2-Fluoro-6-methoxy-phenyl)-pyridin-3-yl]-N-methyl-3,5-bis-trifluoromethyl-benzamide] the pEC50 was 8.10.
In the case of `Cc1cc(F)ccc1-c1cc(Cl)ncc1N(C)C(=O)c1cc(C(F)(F)F)cc(C(F)(F)F)c1` [Example 72, N-[6-Chloro-4-(4-fluoro-2-methyl-phenyl)-pyridin-3-yl]-N-methyl-3,5-bis-trifluoromethyl-benzamide], the pEC50 was 6.23.
`COc1cc(F)ccc1-c1ccncc1N(Cc1nc(C)co1)C(=O)c1cc(C(F)(F)F)cc(S(C)(=O)=O)c1` [Example 293, N-[4-(4-Fluoro-2-methoxy-phenyl)-pyridin-3-yl]-3-methanesulfonyl-N-(4-methyl-oxazol-2-ylmethyl)-5-trifiuoromethyl-benzamide] was tested, and the pEC50 was 5.61.
In the case of `COc1cc(F)ccc1-c1ccncc1N(C)C(=O)c1cc(C(F)(F)F)cc(S(=O)(=O)CCN)c1` [Example 241, 3-(2-Amino-ethanesulfonyl)-N-[4-(4-fluoro-2-methoxy-phenyl)-pyridin-3-yl]-N-methyl-5-trifluoromethyl-benzamide], the pEC50 was 6.98.
With `CS(=O)(=O)CCN(C(=O)c1cc(C(F)(F)F)cc(S(C)(=O)=O)c1)c1cnccc1-c1ccccc1OC(F)(F)F` [Example 308, 3-Methanesulfonyl-N-(2-methanesulfonyl-ethyl)-N-[4-(2-trifluoromethoxy-phenyl)-pyridin-3-yl]-5-trifluoromethyl-benzamide] the pEC50 was 6.03.
For `CN(C(=O)c1cc(C(F)(F)F)cc(C(F)(F)F)c1)c1cnccc1-c1cc(F)cnc1Cl` [Example 55, N-(2-Chloro-5-fluoro-[3,4′]bipyridinyl-3′-yl)-N-methyl-3,5-bis-trifluoromethyl-benzamide], the pEC50 was 6.36.
With `CN(C(=O)c1cc(C(F)(F)F)cc(C(F)(F)F)c1)c1cnccc1-c1ccnc(Cl)c1F` [Example 56, N-(2′-Chloro-3′-fluoro-[4,4′]bipyridinyl-3-yl)-N-methyl-3,5-bis-trifluoromethyl-benzamide] the pEC50 was 6.37.
For `Cc1cccc(-c2ccncc2N(C)C(=O)c2cc(C(F)(F)F)cc(C(F)(F)F)c2)c1C` [Example 105, N-[4-(2,3-Dimethyl-phenyl)-pyridin-3-yl]-N-methyl-3,5-bis-trifluoromethyl-benzamide], the pEC50 was 6.31.
Work on `COC(=O)CN(C(=O)c1cc(C(F)(F)F)cc(C(F)(F)F)c1)c1cnccc1-c1cc(F)c(F)cc1OC` [Example 188, {(3,5-Bis-trifluoromethyl-benzoyl)-[4-(4,5-difluoro-2-methoxy-phenyl)-pyridin-3-yl]-amino}-acetic acid methyl ester] yielded a pEC50 of 7.15.
`Cc1cc(-c2ccccc2OC2COC2)c(N(C)C(=O)c2cc(C(F)(F)F)cc(S(C)(=O)=O)c2)cn1` [Example 318, 3-Methanesulfonyl-N-methyl-N-{6-methyl-4-[2-(oxetan-3-yloxy)-phenyl]-pyridin-3-yl}-5-trifluoromethyl-benzamide] gave a pEC50 of 5.95.
`Cc1ccccc1-c1ccncc1N(C)C(=O)c1ccc(F)c(Cl)c1` [Example 11, 3-Chloro-4-fluoro-N-methyl-N-(4-o-tolyl-pyridin-3-yl)-benzamide] showed a pEC50 of 6.39.
For `COc1cc(F)ccc1-c1cc(Cl)ncc1N(C)C(=O)c1cc(C(F)(F)F)cc(S(C)(=O)=O)c1` [Example 201, N-[6-Chloro-4-(4-fluoro-2-methoxy-phenyl)-pyridin-3-yl]-3-methanesulfonyl-N-methyl-5-trifluoromethyl-benzamide], the pEC50 was 6.57.
